Test results published in ChEMBL document CHEMBL4649984, “CBP30, a selective CBP/p300 bromodomain inhibitor, suppresses human Th17 responses” (Proc Natl Acad Sci U S A, 2015).
Where “and” joins values, the source holds several entries; their conditions need not be identical. Equal values may be shown once.

What was measured:
[1] = biological target: Bromodomain and WD repeat-containing protein 3 (Homo sapiens) (UniProt Q6RI45); details: Compound concentration 10.0 uM, Protein concentration 2.0 uM
[2] = biological target: Bromodomain adjacent to zinc finger domain protein 1A (Homo sapiens) (UniProt Q9NRL2); details: Compound concentration 10.0 uM, Protein concentration 2.0 uM
[3] = biological target: Nuclear body protein SP140 (Homo sapiens) (UniProt Q13342); details: Compound concentration 10.0 uM, Protein concentration 2.0 uM
[4] = biological target: ATPase family AAA domain-containing protein 2 (Homo sapiens) (UniProt Q6PL18); details: Compound concentration 25.0 uM, Protein concentration 200.0 uM
Description: Alphascreen assay. Domain start/stop: Q981-R1108

[5] = biological target: Histone acetyltransferase p300 (Homo sapiens) (UniProt Q09472); test: Thermal Shift Assay. Domain start/stop: A1040-S1171; details: Compound concentration 10.0 uM, Protein concentration 2.0 uM
[6] = biological target: Bromodomain-containing protein 1 (Homo sapiens) (UniProt O95696); details: Compound concentration 10.0 uM, Protein concentration 2.0 uM
Peregrin (Homo sapiens) [7] = biological target: Peregrin (Homo sapiens) (UniProt P55201); details: Compound concentration 10.0 uM, Protein concentration 2.0 uM
[8] = biological target: PH-interacting protein (Homo sapiens) (UniProt Q8WWQ0); details: Compound concentration 10.0 uM, Protein concentration 2.0 uM
[9] = biological target: Nucleosome-remodeling factor subunit BPTF (Homo sapiens) (UniProt Q12830); details: Compound concentration 10.0 uM, Protein concentration 2.0 uM
[10] = biological target: Protein polybromo-1 (Homo sapiens) (UniProt Q86U86); details: Compound concentration 10.0 uM, Protein concentration 2.0 uM
[11] = biological target: Transcription intermediary factor 1-alpha (Homo sapiens) (UniProt O15164); details: Compound concentration 10.0 uM, Protein concentration 2.0 uM
[12] = biological target: Chromatin remodeling regulator CECR2 (Homo sapiens) (UniProt Q9BXF3); details: Compound concentration 10.0 uM, Protein concentration 2.0 uM
[13] = biological target: Chromatin remodeling regulator CECR2 (Homo sapiens) (UniProt Q9BXF3); details: Compound concentration 20.0 uM, Protein concentration 12.5 uM
[14] = biological target: Bromodomain-containing protein 2 (Homo sapiens) (UniProt P25440); details: Compound concentration 10.0 uM, Protein concentration 2.0 uM
[15] = biological target: Bromodomain-containing protein 9 (Homo sapiens) (UniProt Q9H8M2); details: Compound concentration 10.0 uM, Protein concentration 2.0 uM
[16] = biological target: Protein polybromo-1 (Homo sapiens) (UniProt Q86U86); test: Thermal Shift Assay. Domain start/stop: H23-D159; details: Compound concentration 10.0 uM, Protein concentration 2.0 uM
[17] = biological target: Bromodomain adjacent to zinc finger domain protein 2B (Homo sapiens) (UniProt Q9UIF8); details: Compound concentration 10.0 uM, Protein concentration 2.0 uM
[18] = biological target: Bromodomain adjacent to zinc finger domain protein 2B (Homo sapiens) (UniProt Q9UIF8); test: Alphascreen assay. Domain start/stop: S1858-S1972; details: Compound concentration 25.0 uM, Protein concentration 25.0 uM
[19] = biological target: ATPase family AAA domain-containing protein 2B (Homo sapiens) (UniProt Q9ULI0); details: Compound concentration 10.0 uM, Protein concentration 2.0 uM
[20] = biological target: Bromodomain testis-specific protein (Homo sapiens) (UniProt Q58F21); details: Compound concentration 10.0 uM, Protein concentration 2.0 uM
[21] = biological target: ATPase family AAA domain-containing protein 2 (Homo sapiens) (UniProt Q6PL18); details: Compound concentration 10.0 uM, Protein concentration 2.0 uM
[22] = biological target: T1, Bromodomain-containing protein 4 (Homo sapiens, UniProt O60885); details: Compound concentration 10.0 uM, Protein concentration 2.0 uM
Peregrin (Homo sapiens) [23] = biological target: Peregrin (Homo sapiens) (UniProt P55201); details: Compound concentration 10.0 uM, Protein concentration 2.0 uM; remark: listed apart in the source
[24] = biological target: Protein polybromo-1 (Homo sapiens) (UniProt Q86U86); details: Compound concentration 10.0 uM, Protein concentration 2.0 uM; remark: listed apart in the source
[25] = biological target: Histone acetyltransferase KAT2A (Homo sapiens) (UniProt Q92830); details: Compound concentration 10.0 uM, Protein concentration 2.0 uM
[26] = biological target: Transcription initiation factor TFIID subunit 1-like (Homo sapiens) (UniProt Q8IZX4); details: Compound concentration 10.0 uM, Protein concentration 2.0 uM
[27] = biological target: CREB-binding protein (Homo sapiens) (UniProt Q92793); details: Compound concentration 10.0 uM, Protein concentration 2.0 uM
[28] = biological target: Bromodomain testis-specific protein (Homo sapiens) (UniProt Q58F21); details: Compound concentration 10.0 uM, Protein concentration 2.0 uM; remark: listed apart in the source
[29] = biological target: Bromodomain and WD repeat-containing protein 1 (Homo sapiens) (UniProt Q9NSI6); details: Compound concentration 10.0 uM, Protein concentration 2.0 uM
[30] = biological target: Protein polybromo-1 (Homo sapiens) (UniProt Q86U86); details: Compound concentration 10.0 uM, Protein concentration 2.0 uM; remark: listed apart in the source
[31] = biological target: Transcription initiation factor TFIID subunit 1-like (Homo sapiens) (UniProt Q8IZX4); details: Compound concentration 10.0 uM, Protein concentration 2.0 uM; remark: listed apart in the source
[32] = biological target: Transcription initiation factor TFIID subunit 1 (Homo sapiens) (UniProt P21675); details: Compound concentration 10.0 uM, Protein concentration 2.0 uM
[33] = biological target: PH-interacting protein (Homo sapiens) (UniProt Q8WWQ0); details: Compound concentration 50.0 uM, Protein concentration 0.025 uM
[34] = biological target: Protein polybromo-1 (Homo sapiens) (UniProt Q86U86); test: Thermal Shift Assay. Domain start/stop: R487-D598; details: Compound concentration 10.0 uM, Protein concentration 2.0 uM
[35] = biological target: Transcription intermediary factor 1-beta (Homo sapiens) (UniProt Q13263); details: Compound concentration 10.0 uM, Protein concentration 2.0 uM
[36] = biological target: Nuclear body protein SP140-like protein (Homo sapiens) (UniProt Q9H930); details: Compound concentration 10.0 uM, Protein concentration 2.0 uM
[37] = biological target: Bromodomain and PHD finger-containing protein 3 (Homo sapiens) (UniProt Q9ULD4); details: Compound concentration 10.0 uM, Protein concentration 2.0 uM
[38] = biological target: Tripartite motif-containing protein 66 (Homo sapiens) (UniProt O15016); test: Thermal Shift Assay. Domain start/stop: M1091-S1218; details: Compound concentration 10.0 uM, Protein concentration 2.0 uM
[39] = biological target: Protein polybromo-1 (Homo sapiens) (UniProt Q86U86); details: Compound concentration 10.0 uM, Protein concentration 2.0 uM; remark: listed apart in the source
[40] = biological target: Histone acetyltransferase KAT2B (Homo sapiens) (UniProt Q92831); details: Compound concentration 10.0 uM, Protein concentration 2.0 uM
[41] = biological target: SWI/SNF-related matrix-associated actin-dependent regulator of chromatin subfamily A member 2 (Homo sapiens) (UniProt P51531); details: Compound concentration 10.0 uM, Protein concentration 2.0 uM
[42] = biological target: Bromodomain-containing protein 2 (Homo sapiens) (UniProt P25440); details: Compound concentration 10.0 uM, Protein concentration 2.0 uM; remark: listed apart in the source
[43] = biological target: Bromodomain-containing protein 3 (Homo sapiens) (UniProt Q15059); details: Compound concentration 10.0 uM, Protein concentration 2.0 uM
[44] = biological target: SWI/SNF-related matrix-associated actin-dependent regulator of chromatin subfamily A member 4 (Homo sapiens) (UniProt P51532); details: Compound concentration 10.0 uM, Protein concentration 2.0 uM
[45] = biological target: Bromodomain adjacent to zinc finger domain protein 2A (Homo sapiens) (UniProt Q9UIF9); details: Compound concentration 10.0 uM, Protein concentration 2.0 uM
[46] = biological target: T1, Bromodomain-containing protein 4; test: Alphascreen assay. Binding to BRD4A (domain start/stop: N44-E168) by alphascreen assay
[47] = biological target: Bromodomain-containing protein 3 (Homo sapiens) (UniProt Q15059); test: Thermal Shift Assay. Domain start/stop: P24-E144; details: Compound concentration 10.0 uM, Protein concentration 2.0 uM
[48] = biological target: Transcription initiation factor TFIID subunit 1 (Homo sapiens) (UniProt P21675); details: Compound concentration 10.0 uM, Protein concentration 2.0 uM; remark: listed apart in the source
[49] = biological target: Histone acetyltransferase p300 (Homo sapiens) (UniProt Q09472); details: Compound concentration 10.0 uM, Protein concentration 2.0 uM
[50] = biological target: Histone-lysine N-methyltransferase ASH1L (Homo sapiens) (UniProt Q9NR48); details: Compound concentration 10.0 uM, Protein concentration 2.0 uM

Chain of Transcription initiation factor TFIID subunit 1 (Homo sapiens) (P21675 whole entry): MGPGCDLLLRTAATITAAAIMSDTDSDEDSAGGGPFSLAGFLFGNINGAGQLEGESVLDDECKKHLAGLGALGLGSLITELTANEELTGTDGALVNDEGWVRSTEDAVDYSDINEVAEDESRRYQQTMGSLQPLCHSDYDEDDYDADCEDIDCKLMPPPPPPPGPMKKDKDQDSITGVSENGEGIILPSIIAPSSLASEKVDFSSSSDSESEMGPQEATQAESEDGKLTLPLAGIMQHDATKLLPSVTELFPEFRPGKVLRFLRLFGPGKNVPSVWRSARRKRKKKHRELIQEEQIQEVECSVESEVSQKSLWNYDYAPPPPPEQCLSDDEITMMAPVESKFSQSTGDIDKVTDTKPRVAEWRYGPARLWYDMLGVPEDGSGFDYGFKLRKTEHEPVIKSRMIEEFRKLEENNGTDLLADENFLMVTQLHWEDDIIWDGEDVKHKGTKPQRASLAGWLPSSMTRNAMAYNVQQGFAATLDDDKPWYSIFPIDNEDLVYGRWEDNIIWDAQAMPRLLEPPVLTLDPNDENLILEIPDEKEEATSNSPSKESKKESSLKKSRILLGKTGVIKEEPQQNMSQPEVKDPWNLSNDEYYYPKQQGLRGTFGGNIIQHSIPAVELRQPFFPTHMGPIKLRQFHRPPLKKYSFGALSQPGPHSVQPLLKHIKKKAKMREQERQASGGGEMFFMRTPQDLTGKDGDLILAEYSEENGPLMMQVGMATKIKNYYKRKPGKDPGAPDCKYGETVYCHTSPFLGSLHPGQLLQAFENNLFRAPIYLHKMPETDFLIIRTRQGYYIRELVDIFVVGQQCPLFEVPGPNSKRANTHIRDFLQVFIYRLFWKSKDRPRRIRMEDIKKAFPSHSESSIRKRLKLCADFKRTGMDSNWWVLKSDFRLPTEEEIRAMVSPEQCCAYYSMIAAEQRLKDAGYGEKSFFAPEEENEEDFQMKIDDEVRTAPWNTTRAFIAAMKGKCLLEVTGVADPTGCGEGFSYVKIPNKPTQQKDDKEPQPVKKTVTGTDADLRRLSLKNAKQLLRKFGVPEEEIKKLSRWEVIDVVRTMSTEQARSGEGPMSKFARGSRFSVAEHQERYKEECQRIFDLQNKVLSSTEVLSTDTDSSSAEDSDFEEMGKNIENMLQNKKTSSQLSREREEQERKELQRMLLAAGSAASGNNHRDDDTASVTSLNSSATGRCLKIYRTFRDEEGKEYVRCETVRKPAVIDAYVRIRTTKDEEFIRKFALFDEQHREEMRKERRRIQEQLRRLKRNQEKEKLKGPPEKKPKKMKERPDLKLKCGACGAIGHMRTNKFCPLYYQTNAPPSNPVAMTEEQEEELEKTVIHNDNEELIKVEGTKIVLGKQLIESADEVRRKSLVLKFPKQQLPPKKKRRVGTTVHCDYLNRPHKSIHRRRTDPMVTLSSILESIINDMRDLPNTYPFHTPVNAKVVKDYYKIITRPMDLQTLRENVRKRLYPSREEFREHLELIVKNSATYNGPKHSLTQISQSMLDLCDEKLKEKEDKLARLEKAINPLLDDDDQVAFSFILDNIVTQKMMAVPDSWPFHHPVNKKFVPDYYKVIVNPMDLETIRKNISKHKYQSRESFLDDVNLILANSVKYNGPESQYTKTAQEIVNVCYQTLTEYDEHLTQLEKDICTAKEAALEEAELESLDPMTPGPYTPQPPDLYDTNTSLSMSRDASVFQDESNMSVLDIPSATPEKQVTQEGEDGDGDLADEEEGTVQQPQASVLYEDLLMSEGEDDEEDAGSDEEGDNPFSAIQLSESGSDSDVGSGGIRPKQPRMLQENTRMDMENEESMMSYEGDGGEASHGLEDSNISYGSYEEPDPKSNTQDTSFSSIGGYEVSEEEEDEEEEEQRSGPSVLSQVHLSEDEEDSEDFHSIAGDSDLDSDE
Chain of Chromatin remodeling regulator CECR2 (Homo sapiens) (Q9BXF3 whole entry, looked up): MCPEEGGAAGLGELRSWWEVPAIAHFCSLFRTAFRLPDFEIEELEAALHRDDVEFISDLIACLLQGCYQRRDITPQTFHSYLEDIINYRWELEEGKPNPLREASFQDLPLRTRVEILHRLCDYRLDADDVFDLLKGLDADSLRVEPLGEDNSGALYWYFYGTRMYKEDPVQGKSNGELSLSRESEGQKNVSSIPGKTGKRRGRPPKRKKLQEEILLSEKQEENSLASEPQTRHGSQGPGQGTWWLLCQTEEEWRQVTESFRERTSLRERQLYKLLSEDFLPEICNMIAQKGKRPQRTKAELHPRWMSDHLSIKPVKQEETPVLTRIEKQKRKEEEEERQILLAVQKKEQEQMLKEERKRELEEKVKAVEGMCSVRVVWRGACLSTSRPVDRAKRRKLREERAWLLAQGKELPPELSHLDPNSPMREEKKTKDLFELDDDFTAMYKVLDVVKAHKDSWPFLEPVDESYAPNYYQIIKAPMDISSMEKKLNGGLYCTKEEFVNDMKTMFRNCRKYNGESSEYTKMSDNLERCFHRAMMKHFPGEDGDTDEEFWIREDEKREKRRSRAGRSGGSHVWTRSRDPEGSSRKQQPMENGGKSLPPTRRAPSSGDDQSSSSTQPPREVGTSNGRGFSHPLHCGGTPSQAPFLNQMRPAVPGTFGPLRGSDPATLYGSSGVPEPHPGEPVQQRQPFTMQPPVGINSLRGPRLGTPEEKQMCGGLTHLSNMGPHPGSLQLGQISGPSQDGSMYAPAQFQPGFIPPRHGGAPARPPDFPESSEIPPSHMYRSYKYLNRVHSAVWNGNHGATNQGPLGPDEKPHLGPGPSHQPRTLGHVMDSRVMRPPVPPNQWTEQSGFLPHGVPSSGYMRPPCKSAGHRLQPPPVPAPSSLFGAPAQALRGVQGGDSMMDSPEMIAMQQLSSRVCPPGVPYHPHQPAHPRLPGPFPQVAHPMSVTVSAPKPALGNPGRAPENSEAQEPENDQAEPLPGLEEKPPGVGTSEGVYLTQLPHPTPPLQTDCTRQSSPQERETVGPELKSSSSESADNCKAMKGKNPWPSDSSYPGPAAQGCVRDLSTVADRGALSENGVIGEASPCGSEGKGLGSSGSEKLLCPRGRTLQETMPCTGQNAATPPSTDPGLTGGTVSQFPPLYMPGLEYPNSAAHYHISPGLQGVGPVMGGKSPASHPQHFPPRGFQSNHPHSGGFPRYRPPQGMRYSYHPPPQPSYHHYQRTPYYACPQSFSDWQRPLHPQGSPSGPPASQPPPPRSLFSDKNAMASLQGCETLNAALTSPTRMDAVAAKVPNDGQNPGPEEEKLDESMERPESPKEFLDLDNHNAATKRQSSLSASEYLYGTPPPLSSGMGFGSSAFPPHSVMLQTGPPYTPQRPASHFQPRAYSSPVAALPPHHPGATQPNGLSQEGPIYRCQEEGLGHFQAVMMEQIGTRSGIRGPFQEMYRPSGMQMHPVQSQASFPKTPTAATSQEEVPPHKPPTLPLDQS
Chain of Protein polybromo-1 (Homo sapiens) (Q86U86 whole entry, the tested form may be a part): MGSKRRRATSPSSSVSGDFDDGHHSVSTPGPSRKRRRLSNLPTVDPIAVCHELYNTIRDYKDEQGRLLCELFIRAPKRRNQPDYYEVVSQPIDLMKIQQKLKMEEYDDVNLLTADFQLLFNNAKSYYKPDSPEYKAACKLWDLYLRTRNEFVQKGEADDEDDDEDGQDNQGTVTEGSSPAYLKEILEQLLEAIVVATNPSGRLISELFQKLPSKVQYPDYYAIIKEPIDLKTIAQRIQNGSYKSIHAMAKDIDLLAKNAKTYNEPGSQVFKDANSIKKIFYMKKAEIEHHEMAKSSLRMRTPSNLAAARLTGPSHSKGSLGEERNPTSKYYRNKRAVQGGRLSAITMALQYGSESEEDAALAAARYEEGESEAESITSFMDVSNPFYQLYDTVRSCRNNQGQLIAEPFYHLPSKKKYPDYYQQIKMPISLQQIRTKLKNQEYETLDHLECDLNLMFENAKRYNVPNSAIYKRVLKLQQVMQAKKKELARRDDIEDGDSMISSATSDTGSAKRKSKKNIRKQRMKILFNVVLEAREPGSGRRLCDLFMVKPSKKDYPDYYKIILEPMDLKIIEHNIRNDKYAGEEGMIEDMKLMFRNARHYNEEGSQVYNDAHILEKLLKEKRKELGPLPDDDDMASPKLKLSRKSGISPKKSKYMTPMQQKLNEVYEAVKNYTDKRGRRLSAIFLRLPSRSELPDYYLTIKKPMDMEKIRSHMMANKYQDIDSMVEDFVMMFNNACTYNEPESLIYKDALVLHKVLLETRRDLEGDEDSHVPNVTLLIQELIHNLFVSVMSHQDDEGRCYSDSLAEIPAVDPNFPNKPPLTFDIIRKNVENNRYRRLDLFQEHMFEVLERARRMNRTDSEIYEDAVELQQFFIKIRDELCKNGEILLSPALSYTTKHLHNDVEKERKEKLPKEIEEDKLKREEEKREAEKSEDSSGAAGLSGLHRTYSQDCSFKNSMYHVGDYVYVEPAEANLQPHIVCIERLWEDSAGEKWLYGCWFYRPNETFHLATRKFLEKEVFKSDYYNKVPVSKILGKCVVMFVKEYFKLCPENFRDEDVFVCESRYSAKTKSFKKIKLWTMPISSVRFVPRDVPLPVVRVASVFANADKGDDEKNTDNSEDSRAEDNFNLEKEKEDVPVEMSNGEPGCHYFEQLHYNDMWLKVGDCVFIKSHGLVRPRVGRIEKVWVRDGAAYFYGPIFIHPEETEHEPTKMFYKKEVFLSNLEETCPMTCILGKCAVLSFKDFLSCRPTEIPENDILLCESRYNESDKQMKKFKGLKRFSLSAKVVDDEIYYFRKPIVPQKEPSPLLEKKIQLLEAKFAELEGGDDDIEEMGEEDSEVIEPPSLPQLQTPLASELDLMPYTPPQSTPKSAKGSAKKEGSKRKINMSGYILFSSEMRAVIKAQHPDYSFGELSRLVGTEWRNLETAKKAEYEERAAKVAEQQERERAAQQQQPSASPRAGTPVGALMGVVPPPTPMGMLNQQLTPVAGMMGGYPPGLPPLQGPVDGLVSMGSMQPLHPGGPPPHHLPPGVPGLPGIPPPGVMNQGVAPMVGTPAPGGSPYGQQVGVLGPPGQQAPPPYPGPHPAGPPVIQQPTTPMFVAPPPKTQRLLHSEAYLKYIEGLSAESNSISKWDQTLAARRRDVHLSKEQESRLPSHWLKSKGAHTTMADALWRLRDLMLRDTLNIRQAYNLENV

COc1ccc(CCc2nc3cc(-c4c(C)noc4C)ccc3n2C[C@H](C)N2CCOCC2)cc1Cl
ΔTm [1]: 0.97 °C
ΔTm [2]: -0.45 °C
ΔTm [3]: 0.37 °C
inhibition [4]: 24.4%
ΔTm [5]: 9.68 °C
ΔTm [6]: 0.43 °C and 0.36 °C
ΔTm (Peregrin (Homo sapiens) [7]): 1.46 °C
ΔTm [8]: 0.57 °C
ΔTm [9]: 0.21 °C and -1.05 °C
ΔTm [10]: 0.46 °C
ΔTm [11]: 0.67 °C
ΔTm [12]: 0.18 °C and 1.55 °C
inhibition [13]: 58.8%
ΔTm [14]: 1.41 °C
ΔTm [15]: -0.12 °C and -0.5 °C
ΔTm [16]: 0.03 °C
ΔTm [17]: 0.17 °C
inhibition [18]: 24%
ΔTm [19]: 0.45 °C
ΔTm [20]: 0.66 °C
ΔTm [21]: -2.5 °C
ΔTm [22]: 0.56 °C
ΔTm (Peregrin (Homo sapiens) [23]): 0.42 °C
ΔTm [24]: 0.12 °C
ΔTm [25]: 0.17 °C
ΔTm [26]: 1.11 °C
ΔTm [27]: 10.2 °C and 9.55 °C
ΔTm [28]: 0.37 °C
ΔTm [29]: 0.96 °C
ΔTm [30]: 0.46 °C and -0.03 °C
ΔTm [31]: -0.06 °C
ΔTm [32]: 0.26 °C and 0.07 °C
inhibition [33]: 35.5% and 42.4%
ΔTm [34]: 0.23 °C
ΔTm [35]: 0.49 °C and -0.34 °C
ΔTm [36]: 0.17 °C
ΔTm [37]: 0.46 °C
ΔTm [38]: 0.82 °C
ΔTm [39]: 0.23 °C
ΔTm [40]: 0.46 °C
ΔTm [41]: 0.06 °C
ΔTm [42]: 0.99 °C
ΔTm [43]: 1.25 °C
ΔTm [44]: 0.34 °C
ΔTm [45]: -0.18 °C
IC50 [46]: 27.8 µM and 7.12 µM
ΔTm [47]: 1.83 °C
ΔTm [48]: -0.12 °C
ΔTm [49]: 10.2 °C
ΔTm [50]: -0.29 °C
